Structures are written as SMILES. pIC50: −log10 of the molar value.

Data set [1] is described as follows: Inhibition of p-EGFR Del19/T790M/C797S triple mutant in mouse BaF3 cells. The data set is classed as cell-based.
A short description of data set [2]: Antiproliferative against in mouse Ba/F3 EGFR-Del19/T790M/C797S cells. The class given is functional, cell-based.
For data set [3], the target named is T1, Epidermal growth factor receptor (Homo sapiens, UniProt P00533, C797S/L858R/T790M). In words: Inhibition of EGFR L858R/T790M/C797S triple mutant (unknown origin).
Another data set relates to NCI-H1975. In words: Growth inhibition of human NCI-H1975 cells. The class given is functional, cell-based.
Data set [4] deals with T2, Epidermal growth factor receptor (Homo sapiens, UniProt P00533, L858R/T790M). In words: Inhibition of EGFR L858R/T790M double mutant (unknown origin).
A short description of data set [5]: Antiproliferative against in mouse Ba/F3 EGFR-T790M/C797S/L858R cells. The data set is classed as functional, cell-based.
The target in data set [6] is Epidermal growth factor receptor (Homo sapiens, UniProt P00533, C797S/EX19DEL/T790M). In words: Inhibition of EGFR Del19/T790M/C797S triple mutant (unknown origin).
Data set [7] concerns the target Epidermal growth factor receptor (Homo sapiens, UniProt P00533). In words: Inhibition of wild type EGFR (unknown origin).
Data set [8] addresses T1, Epidermal growth factor receptor. In words: Inhibition of EGFR L858R/T790M/C797S triple mutant (unknown origin) expressed in mouse BaF3 cells. The data set is classed as cell-based.
Data set [9] has as its target Epidermal growth factor receptor (Homo sapiens, UniProt P00533, L858R). In words: Inhibition of EGFR L858R mutant (unknown origin).
Data set [10] concerns BaF3. In words: cells. The note with it: Mus musculus.
The test system of data set [11] is BaF3. In words: Antiproliferative against in mouse BaF3 cells harbouring Del19/T790M/C797S triple mutant at 100 nM relative to control. The data set is classed as functional.
Data set [12] in a line: Half life in Ba/F3 EGFR cells xenografted nude mouse liver microsomes. The data set is classed as ADME. In general terms: Liver microsomes are a subcellular fraction often used to study metabolism.
The target of data set [13] is T1, Epidermal growth factor receptor. In words: Inhibition of EGFR L858R/T790M/C797S triple mutant (unknown origin) by HTRF method. Background: In TR-FRET formats the signal depends on donor and acceptor labels being close together.
Data set [14] has the same target. In words: Inhibition of EGFR L858R/T790M/C797S triple mutant (unknown origin) in human NCI-H1975 cell. The data set is classed as cell-based.
The target of data set [15] is T2, Epidermal growth factor receptor. In words: Inhibition of EGFR L858R/T790M double mutant (unknown origin) in human NCI-H1975 cell. The data set is classed as cell-based.
Data set [16] is described as follows: Oral bioavailability in mouse relative to control. To be noted: in vivo. The class given is ADME, organism-based.
Data set [17] can be described thus: Oral bioavailability in rat relative to control. To be noted: in vivo. The class given is ADME, organism-based.
Data set [18] can be described thus: Inhibition of EGFR L858R/T790M/C797S triple mutant (unknown origin) in mouse BaF3 cells. The data set is classed as cell-based.
The subject of data set [19] is BaF3. In words: Antiproliferative against in mouse BaF3 EFGR Del19/T790M/C797S cell. The data set is classed as functional, cell-based.
For another data set, the species on record is Homo sapiens. In words: Selectivity ratio of IC50 for EGFR Del19/T790M/C797S triple mutant (unknown origin) to wild type EGFR (unknown origin).

T1 sequence (P00533 25-1210 T790M/C797S/L858R limits assumed): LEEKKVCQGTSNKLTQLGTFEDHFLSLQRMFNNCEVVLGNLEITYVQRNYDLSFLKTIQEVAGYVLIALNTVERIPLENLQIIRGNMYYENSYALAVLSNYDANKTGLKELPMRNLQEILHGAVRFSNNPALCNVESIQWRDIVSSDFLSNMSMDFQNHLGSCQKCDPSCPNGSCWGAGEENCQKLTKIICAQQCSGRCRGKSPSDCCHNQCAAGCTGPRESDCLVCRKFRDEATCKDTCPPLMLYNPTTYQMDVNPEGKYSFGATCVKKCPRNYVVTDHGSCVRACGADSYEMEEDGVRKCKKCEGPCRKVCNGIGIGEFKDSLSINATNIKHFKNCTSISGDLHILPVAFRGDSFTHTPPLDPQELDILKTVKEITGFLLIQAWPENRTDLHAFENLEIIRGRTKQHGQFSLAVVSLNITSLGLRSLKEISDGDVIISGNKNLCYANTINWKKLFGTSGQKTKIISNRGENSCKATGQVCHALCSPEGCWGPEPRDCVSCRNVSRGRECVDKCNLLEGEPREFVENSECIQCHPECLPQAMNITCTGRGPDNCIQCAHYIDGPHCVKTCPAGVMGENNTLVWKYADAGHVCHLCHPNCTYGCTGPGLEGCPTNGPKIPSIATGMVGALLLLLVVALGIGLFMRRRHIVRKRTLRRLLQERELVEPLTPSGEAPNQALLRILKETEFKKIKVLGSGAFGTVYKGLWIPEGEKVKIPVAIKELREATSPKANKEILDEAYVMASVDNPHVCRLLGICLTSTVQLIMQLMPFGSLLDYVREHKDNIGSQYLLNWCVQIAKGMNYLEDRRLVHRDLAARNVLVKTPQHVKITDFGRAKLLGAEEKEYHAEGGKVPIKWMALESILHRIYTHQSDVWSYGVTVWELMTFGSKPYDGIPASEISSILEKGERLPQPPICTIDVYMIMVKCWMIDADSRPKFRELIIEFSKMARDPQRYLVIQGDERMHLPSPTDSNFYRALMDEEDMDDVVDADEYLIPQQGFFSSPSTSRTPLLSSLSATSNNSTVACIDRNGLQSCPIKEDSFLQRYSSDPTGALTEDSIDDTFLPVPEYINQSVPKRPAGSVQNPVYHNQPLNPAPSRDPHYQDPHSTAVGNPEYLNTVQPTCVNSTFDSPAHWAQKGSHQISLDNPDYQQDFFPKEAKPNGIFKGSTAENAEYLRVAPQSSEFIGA
Epidermal growth factor receptor (Homo sapiens, UniProt P00533, C797S/EX19DEL/T790M), sequence (P00533 whole entry, looked up, stated change not applied): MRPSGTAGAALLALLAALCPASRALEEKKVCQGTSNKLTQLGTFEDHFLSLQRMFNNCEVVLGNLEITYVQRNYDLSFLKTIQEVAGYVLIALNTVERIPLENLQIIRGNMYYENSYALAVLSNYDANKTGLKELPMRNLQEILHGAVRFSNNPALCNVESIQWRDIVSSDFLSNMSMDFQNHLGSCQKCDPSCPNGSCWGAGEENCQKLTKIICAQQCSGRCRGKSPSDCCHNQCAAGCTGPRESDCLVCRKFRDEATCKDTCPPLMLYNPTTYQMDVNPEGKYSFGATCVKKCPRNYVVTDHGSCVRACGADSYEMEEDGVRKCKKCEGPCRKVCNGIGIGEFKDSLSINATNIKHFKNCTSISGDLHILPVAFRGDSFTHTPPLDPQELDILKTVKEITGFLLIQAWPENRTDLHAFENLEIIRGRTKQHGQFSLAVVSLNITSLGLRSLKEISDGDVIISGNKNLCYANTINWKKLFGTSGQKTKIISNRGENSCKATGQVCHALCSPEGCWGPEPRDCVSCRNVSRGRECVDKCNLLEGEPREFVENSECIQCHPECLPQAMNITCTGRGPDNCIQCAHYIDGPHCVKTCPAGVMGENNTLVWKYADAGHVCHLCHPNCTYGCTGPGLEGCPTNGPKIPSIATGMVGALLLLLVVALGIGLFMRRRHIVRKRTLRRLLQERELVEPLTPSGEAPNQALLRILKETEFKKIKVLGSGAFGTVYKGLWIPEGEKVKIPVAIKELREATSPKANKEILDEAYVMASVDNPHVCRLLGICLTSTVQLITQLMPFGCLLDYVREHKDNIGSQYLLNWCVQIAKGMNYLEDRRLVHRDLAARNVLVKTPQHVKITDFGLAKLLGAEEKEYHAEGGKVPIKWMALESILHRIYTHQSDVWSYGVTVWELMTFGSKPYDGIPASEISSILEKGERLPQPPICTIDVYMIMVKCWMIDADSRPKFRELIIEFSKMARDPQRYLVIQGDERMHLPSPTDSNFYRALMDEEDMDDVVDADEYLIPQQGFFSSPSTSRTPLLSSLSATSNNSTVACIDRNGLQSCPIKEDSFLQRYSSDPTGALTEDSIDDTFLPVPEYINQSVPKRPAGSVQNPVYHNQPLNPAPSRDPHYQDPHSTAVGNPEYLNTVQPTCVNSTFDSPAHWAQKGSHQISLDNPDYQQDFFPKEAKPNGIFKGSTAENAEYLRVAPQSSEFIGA
Epidermal growth factor receptor (Homo sapiens, UniProt P00533), sequence (P00533 whole entry): as the sequence (P00533 whole entry, looked up, stated change not applied) above
T2 sequence (P00533 25-1210 T790M/L858R limits assumed): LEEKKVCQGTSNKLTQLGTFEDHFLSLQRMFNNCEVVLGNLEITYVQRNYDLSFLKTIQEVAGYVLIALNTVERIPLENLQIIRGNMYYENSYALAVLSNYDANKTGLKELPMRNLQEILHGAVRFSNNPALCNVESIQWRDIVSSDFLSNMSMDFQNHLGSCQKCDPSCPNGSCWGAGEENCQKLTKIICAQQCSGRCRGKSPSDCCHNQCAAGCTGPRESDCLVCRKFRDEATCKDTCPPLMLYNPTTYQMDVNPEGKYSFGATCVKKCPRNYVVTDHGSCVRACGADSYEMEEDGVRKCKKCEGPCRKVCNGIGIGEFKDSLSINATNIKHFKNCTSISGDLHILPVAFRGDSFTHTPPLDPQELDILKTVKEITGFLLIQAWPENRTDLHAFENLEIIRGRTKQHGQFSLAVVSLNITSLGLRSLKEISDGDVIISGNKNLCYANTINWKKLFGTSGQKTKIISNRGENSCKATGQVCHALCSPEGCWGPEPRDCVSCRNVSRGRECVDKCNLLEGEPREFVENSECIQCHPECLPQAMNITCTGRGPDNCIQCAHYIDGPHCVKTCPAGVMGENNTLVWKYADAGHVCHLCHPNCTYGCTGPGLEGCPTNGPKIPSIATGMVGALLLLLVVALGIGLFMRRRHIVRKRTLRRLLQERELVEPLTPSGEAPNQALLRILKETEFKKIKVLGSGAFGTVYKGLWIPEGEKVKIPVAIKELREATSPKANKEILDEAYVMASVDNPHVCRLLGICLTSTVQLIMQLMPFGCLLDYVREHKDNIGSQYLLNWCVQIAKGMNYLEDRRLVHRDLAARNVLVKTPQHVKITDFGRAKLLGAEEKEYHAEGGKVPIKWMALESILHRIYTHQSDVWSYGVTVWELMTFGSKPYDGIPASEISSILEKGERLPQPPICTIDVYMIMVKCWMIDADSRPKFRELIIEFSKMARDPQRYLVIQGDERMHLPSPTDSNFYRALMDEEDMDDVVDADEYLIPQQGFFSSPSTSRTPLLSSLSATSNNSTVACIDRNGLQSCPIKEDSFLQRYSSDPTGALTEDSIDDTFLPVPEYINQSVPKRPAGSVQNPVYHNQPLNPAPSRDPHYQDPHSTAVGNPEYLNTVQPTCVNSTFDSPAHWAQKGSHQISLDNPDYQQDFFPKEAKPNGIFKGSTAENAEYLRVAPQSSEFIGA

In the case of `C=C(C)c1cnc(Nc2ccc(N3CCC4(CC3)CN(C)C4)cc2)nc1Nc1ccccc1P(C)(C)=O`, the pIC50 in [1] and in data set [2] was no less than 7.00 each time.
On to `Cc1cc(Nc2ncc(Cl)c(Nc3ccccc3P(C)(C)=O)n2)ccc1N1CCC2(CC1)CN(C)C2`, for which the pIC50 in data set [1] and in data set [2] was no less than 7.00 throughout.
Consider `O=C(Nc1nccs1)C(c1ncn2c1CCC2)N1Cc2c(F)cc(C#Cc3ccc(CN4CCC(CO)CC4)cc3)cc2C1=O` (configuration not stated), for which the pIC50 (in general, the IC50 on a negative log10 scale, so that one unit is a factor of ten) in data set [3] was 8.30.
Regarding `CN(C)C1CCN(c2ccc(Nc3cc4c(N5CCC(CO)CC5)nc(Nc5ccc(F)cc5)nc4cn3)nc2)CC1`, the pIC50 is 6.40 in the data set on NCI-H1975 and 6.18 in [3].
In turn, `CN1CCN(c2ccc(Nc3ncc4nc(Nc5ccccc5)n([C@@H]5CCN(S(=O)(=O)C6CC6)C5)c4n3)cc2)CC1` had a pIC50 in data set [3] of 7.40.
The same measure, in the same setting: the value for `COc1cc(N(C)CCN(C)C)ccc1Nc1nccc(-c2cn(CCCO)c3ccccc23)n1` was 8.07.
In the case of `O=C(Nc1nccs1)C(c1ccccc1)N1Cc2ccc(-c3ccc4[nH]ccc4c3)cc2C1=O` (configuration not stated), in data set [4], the pIC50 is 7.82.
As for `CN1CCN(c2ccc(Nc3ncc4nc(Nc5ccccc5)n([C@H]5CCN(S(=O)(=O)C6CC6)C5)c4n3)cc2)CC1`, in data set [3], the pIC50 is 7.74.
In the case of `Cc1cc2cc(n1)-c1cnn(C)c1OCCC[C@@H](C)CN1/C(=N/C2=O)Nc2ccc(CN3CCN(C)CC3)cc21`, the pIC50 in data set [1] is 9.22.
In the case of `Cn1cc(-c2cc(C(=O)/N=c3\[nH]c4ccccc4n3[C@H]3CC[C@H](O)CC3)ccn2)cn1`, the pIC50 is 7.32 in data set [5]; 7.92 in data set [6]; 6.27 in data set [7]; 7.32 in [3]; 7.92 in [2].
`CC(=O)N[C@H]1CC[C@H](n2c(=O)c(-c3ccccc3Cl)cc3ccc(Nc4ccc(N5CCN(C)CC5)c(C)c4)cc32)CC1` had a pIC50 in data set [3] of 7.32.
For `CC(C)(C)n1cc(-c2cncc3ccccc23)c2c(N)ncnc21`, the pIC50 is 5.79 in [7], 7.28 in data set [3] and 5.27 in [8].
In turn, `CN(C)CCOc1ccc(Nc2ncc3nc(Sc4ccc(F)cc4)n(C4CCOCC4)c3n2)cc1` had a pIC50 in data set [9] of 8.92.
For `N#Cc1ccc(O)c(-c2nc(NCc3cccnc3)c3ccccc3n2)c1`, the results for the pIC50 in data set [6] and in data set [7] were 7.64 and 4.30, respectively.
The compound `C=CC(=O)Nc1cc(Nc2ncc(C(=O)OC(C)C)c(-c3cc4ccccc4n3C3CC3)n2)c(OCC(F)(F)F)nc1N(C)CCN(C)C` gave a negative logarithm of the IC50 (pIC50) in data set [2] of 8.00.
`COc1cc(N2CCC(N3CCN(C)CC3)CC2)ccc1Nc1ncc(Cl)c(Nc2ccccc2P(C)(C)=O)n1` [BRIGATINIB] gave a pIC50 in the data set with BaF3 [10] of 7.52. In addition, the inhibition (in general, the drop in the measured response relative to a control, in per cent) at 0.1 µM in the data set with BaF3 [11] was found to be 50%.
The compound `C=CC(=O)Nc1cc(Nc2ncc(C(=O)OC(C)C)c(-c3cc4ccccc4n3C)n2)c(OCC(F)(F)F)nc1N(C)CCN(C)C` gave a pIC50 in data set [2] of 8.05.
For the compound `O=C1c2cc(F)ccc2Nc2ccccc2N1Cc1ccccc1`, the pIC50 in [7] was less than 6.00; in data set [3] it was 7.28.
Regarding `C=CC(=O)Nc1cc(Nc2nccc(-c3cn(C)c4ccccc34)n2)c(OC)cc1N(C)CCN(C)C` [OSIMERTINIB], the results for the pIC50 in [5] and in data set [2] were 5.97 and 6.14, respectively.
`CCc1cc(Nc2ncc(Br)c(Nc3ccc4nccnc4c3P(C)(C)=O)n2)c(OC)cc1N1CCC(N2CCN(C)CC2)CC1`: the pIC50 in data set [6] is 9.67; in data set [2], 8.05. Further, in [12], the half-life (in general, the time needed for the level to fall by half in the phase considered) is 20.5 h.
As to `N#Cc1ccc(O)c(-c2nc(NCc3ncccn3)c3ccccc3n2)c1`, the pIC50 in [13] is 6.20; in data set [14], 5.92; in data set [15], 5.48. Moreover, the bioavailability in [16] and in [17] was 18.6% each time.
`CCC(=O)N[C@H]1CC[C@@H](N2C(=O)N(c3ccccc3Cl)Cc3cnc(Nc4ccc(N5CCN(C)CC5)c(C)c4)nc32)CC1` gave a pIC50 in data set [18] of 6.68.
Take `COC(=O)c1ccc(O)c(-c2nc(NCc3cccnc3)c3ccccc3n2)c1`: the pIC50 in data set [7] is no more than 4.30.
On to `OCCCCc1nc(-c2ccc(F)cc2)c(-c2ccnc3[nH]c(-c4ccccc4)cc23)[nH]1`, for which, in [7], the pIC50 was no less than 9.52.
Take `COc1cc2c(Nc3ccc(NC(=O)C(c4cc(F)ccc4F)N4Cc5ccccc5C4=O)cc3F)ncnc2cc1OCC1CCN(C)CC1` (configuration not stated): the pIC50 in data set [2] is 8.45.
As to `CC(C)(O)Cn1/c(=N/C(=O)c2cc(F)cc(-c3cccnc3)c2)[nH]c2ccccc21`, the pIC50 was 6.10 in [1] and 6.60 in the data set with BaF3 [19].
In data set [3], `CCC(=O)N[C@H]1CC[C@H](n2c(=O)c(-c3ccccc3Cl)cc3ccc(Nc4ccc(N5CCN(C)CC5)c(C)c4)cc32)CC1` showed a pIC50 of 7.42.
`N#Cc1ccc(O)c(-c2nc(NCc3cnccn3)c3ccccc3n2)c1`: the Ratio IC50 in the data set listed under Homo sapiens was found to be 1000. For the same compound, the results for the pIC50 in [6] and in data set [7] were 7.75 and no more than 4.30, respectively.
Regarding `COc1cc(N2CCC(N3CCN(C)CC3)CC2)c(C)cc1Nc1ncc(Br)c(Nc2ccc3nccnc3c2P(C)(C)=O)n1`, in data set [12], the half-life is 10 h.
On to `Oc1ccccc1-c1nc(NCc2cccnc2)c2ccccc2n1`, for which the Ratio IC50 in the data set filed under Homo sapiens is 163.
As for `CCC(=O)N1CCC[C@@H](N2CC(c3cccc(F)c3Cl)=C(C)c3cnc(Nc4ccc(N5CCN(C)CC5)c(C)c4)nc32)C1`, the pIC50 in data set [7] is no more than 6.00; in data set [3] it was 7.56; in data set [8] it was 6.18.
Regarding `CSc1nc(-c2ccc(F)cc2)c(-c2ccnc3[nH]c(-c4ccccc4)cc23)[nH]1`, the pIC50 in data set [7] was 6.54.
The same measure, in the same setting: the value for `OCCc1nc(-c2ccc(F)cc2)c(-c2ccnc3[nH]c(-c4ccccc4)cc23)[nH]1` was no less than 9.52.
Regarding `CN1CCN(c2ccc(Nc3ncc4nc(Nc5ccc(F)cc5)n([C@H]5CCN(S(=O)(=O)C6CC6)C5)c4n3)cc2)CC1`, the pIC50 in [3] is 7.66.
`OCCCc1nc(-c2ccc(F)cc2)c(-c2ccnc3[nH]c(-c4ccccc4)cc23)[nH]1` gave a pIC50 in data set [7] of no less than 9.70.
`CN1CC2(CCN(c3ccc(Nc4ncc(Cl)c(Nc5ccccc5P(C)(C)=O)n4)cc3Br)CC2)C1`: the pIC50 in data set [1] and in data set [2] was no less than 7.00 each time.
As to `Oc1ccc(-c2nc(-c3ccnc4[nH]c(-c5ccccc5)cc34)c(-c3ccc(F)cc3)[nH]2)cc1`, the pIC50 in data set [7] was 6.00.
